# Assay results published in US20240207302A1, “ANTIVIRAL COMPOUNDS, METHODS FOR THE MANUFACTURING OF COMPOUNDS, ANTIVIRAL PHARMACEUTICAL COMPOSITION, USE OF THE COMPOUNDS AND METHOD FOR THE ORAL TREATMENT OF CORONAVIRUS INFECTION AND RELATED DISEASES THEREOF” (priority 2021, published 2024).
# Test system: Salmonella typhimirium TA 97a, TA 98, TA 100, TA 102 and TA 1535
# Experiment: Bacterial reverse mutation (Ames) test
smiles,measurement,setting,value
"c1coc(CNc2ncnc3[nH]cnc23)c1 [MB-905, kinetin]",Mutagenicity,"TA 97a +S9, 8 μg/mL",−
same,Mutagenicity,"TA 97a +S9, 40 μg/mL",−
same,Mutagenicity,"TA 97a +S9, 200 μg/mL",−
same,Mutagenicity,"TA 97a +S9, 1,000 μg/mL",−
same,Mutagenicity,"TA 97a +S9, 5,000 μg/mL",−
same,Mutagenicity,"TA 97a −S9, 8 μg/mL",−
same,Mutagenicity,"TA 97a −S9, 40 μg/mL",−
same,Mutagenicity,"TA 97a −S9, 200 μg/mL",−
same,Mutagenicity,"TA 97a −S9, 1,000 μg/mL",−
same,Mutagenicity,"TA 97a −S9, 5,000 μg/mL",−
same,Mutagenicity,"TA 98 +S9, 8 μg/mL",−
same,Mutagenicity,"TA 98 +S9, 40 μg/mL",−
same,Mutagenicity,"TA 98 +S9, 200 μg/mL",−
same,Mutagenicity,"TA 98 +S9, 1,000 μg/mL",−
same,Mutagenicity,"TA 98 +S9, 5,000 μg/mL",−
same,Mutagenicity,"TA 98 −S9, 8 μg/mL",−
same,Mutagenicity,"TA 98 −S9, 40 μg/mL",−
same,Mutagenicity,"TA 98 −S9, 200 μg/mL",−
same,Mutagenicity,"TA 98 −S9, 1,000 μg/mL",−
same,Mutagenicity,"TA 98 −S9, 5,000 μg/mL",−
same,Mutagenicity,"TA 100 +S9, 8 μg/mL",−
same,Mutagenicity,"TA 100 +S9, 40 μg/mL",−
same,Mutagenicity,"TA 100 +S9, 200 μg/mL",−
same,Mutagenicity,"TA 100 +S9, 1,000 μg/mL",−
same,Mutagenicity,"TA 100 +S9, 5,000 μg/mL",−
same,Mutagenicity,"TA 100 −S9, 8 μg/mL",−
same,Mutagenicity,"TA 100 −S9, 40 μg/mL",−
same,Mutagenicity,"TA 100 −S9, 200 μg/mL",−
same,Mutagenicity,"TA 100 −S9, 1,000 μg/mL",−
same,Mutagenicity,"TA 100 −S9, 5,000 μg/mL",−
same,Mutagenicity,"TA 102 +S9, 8 μg/mL",−
same,Mutagenicity,"TA 102 +S9, 40 μg/mL",−
same,Mutagenicity,"TA 102 +S9, 200 μg/mL",−
same,Mutagenicity,"TA 102 +S9, 1,000 μg/mL",−
same,Mutagenicity,"TA 102 +S9, 5,000 μg/mL",−
same,Mutagenicity,"TA 102 −S9, 8 μg/mL",−
same,Mutagenicity,"TA 102 −S9, 40 μg/mL",−
same,Mutagenicity,"TA 102 −S9, 200 μg/mL",−
same,Mutagenicity,"TA 102 −S9, 1,000 μg/mL",−
same,Mutagenicity,"TA 102 −S9, 5,000 μg/mL",−
same,Mutagenicity,"TA 1535 +S9, 8 μg/mL",−
same,Mutagenicity,"TA 1535 +S9, 40 μg/mL",−
same,Mutagenicity,"TA 1535 +S9, 200 μg/mL",−
same,Mutagenicity,"TA 1535 +S9, 1,000 μg/mL",−
same,Mutagenicity,"TA 1535 +S9, 5,000 μg/mL",−
same,Mutagenicity,"TA 1535 −S9, 8 μg/mL",−
same,Mutagenicity,"TA 1535 −S9, 40 μg/mL",−
same,Mutagenicity,"TA 1535 −S9, 200 μg/mL",−
same,Mutagenicity,"TA 1535 −S9, 1,000 μg/mL",−
same,Mutagenicity,"TA 1535 −S9, 5,000 μg/mL",−
same,mutagenic activity in the reverse mutation test,"all strains, absence and presence of S9",no mutagenic activity
